Reference: patent US10765654B2, “Methods and compounds for treating cancer” (University of Vermont and State Agricultural College, priority 2011, dated 2020)
Peptide text beside a SMILES is read from it.

Key:
Format in all cases: cell-based, human
[1] = system: OG33 oligodendroglioma stem cells; assay: Cell cycle profile by propidium iodide staining and flow cytometry; settings: 100 μM NAA or 10 μM NAAG
Procedure: (§1) Cell cycle profiles were visualized by propidium iodide (PI) staining as previously described (Perez-Martinez & Jaworski (2005) J Neurosci 25:4917-29). OG35, OG33 and mouse neural stem cells were grown in stem cell medium (SCM; DMEM/F12, B27, 20 ng/ml ea bFGF & EGF) while the oligodendrocyte progenitor cell line, Oli-neu (Jung et al. (1995) Eur J Neurosci 7:1245-65) was grown in Sato's medium (DMEM supplemented with 100 μg/ml apotransferrin, 5 μg/ml insulin, 60 nM triiodothyronine, 30 nM sodium selenite, 100 μM putrescine, 1% horse serum, and 25 μg/ml G418). […] after 0.25% (v/v) GTA treatment, cells were trypsinized, recovered by centrifugation, re-suspended (10^6 cells/ml) in a low-salt PI solution ([…] polyethylene glycol PEG 8000, […], 180 U/ml RNase A, 0.1% Triton X-100, and 4 mM sodium citrate), and incubated at 37° C. for 20 minutes. After addition of an equal volume of high-salt PI solution ([…] polyethylene glycol PEG 8000, […], 180 U/ml RNase A, 0.1% Triton X-100, and 400 mM NaCl) and incubation at 4° C. for 1 hour, cell cycle profiles were recorded by flow cytometry (BD LSR 11 Flow Cytometer, BD Biosciences; Franklin Lakes, N.J.).

ASPA in OG33 cells [2] = assay: Western blot of ASPA expression; settings: NAA and NAAG treatment (not shown)
Procedure: SDS-PAGE (25 μg protein from whole cell lysates) and western blotting were performed as previously described (Lluri et al. 2008 Exp Cell Res 314:11-24). Cytosol and nuclear fractions were isolated according to standard protocols. Antibodies: rabbit anti-mouse ASPA (2,000×), (Madhavarao et al. 2004 Comp Neurol 472:318-29) rabbit anti-human ASPA (5,000×; GTX1338; GeneTex, Irvine, Calif.), goat anti-human actin (1,000×, sc-1616, Santa Cruz Biotechnology, Santa Cruz, Calif.), rabbit anti-human GAPDH (5,000×, sc-25778, Santa Cruz Biotechnology, Santa Cruz, Calif.), mouse anti-human histone H1 (250×, sc-8030; Santa Cruz Biotechnology, Santa Cruz, Calif.). Species-specific HRP—(3,000×) conjugated secondary antibodies were obtained from Jackson ImmunoResearch (West Grove, Pa.). Immunocomplexes were visualized by enhanced chemiluminescence (PerkinElmer Life Sciences; Boston, Mass.) and densitometry performed using Quantity One software (Bio-Rad; Hercules, Calif.).
SDS-PAGE (25 μg protein from whole cell lysates) and western blotting were performed as previously described in Example 1.

[3] = system: OG35 oligodendroglioma stem cells; assay: Growth dynamics, trypan blue exclusion and manual counting; settings: 100 μM NAA or 10 μM NAAG; stem cell medium (SCM) and differentiation medium (DM); later time points up to 5 days
Procedure: (§2) Stem cell spheres from two oligodendroglioma stem cell lines (OG33 and OG35) were plated (at 10,000 cells per well of a 24-well plate) in the absence or presence of 100 μM N-acetylaspartate (NAA) or 10 μM N-acetylaspartylglutamate (NAAG) in stem cell medium (SCM) containing DMEM/F12 (Gibco/Life Technologies, Grand Island, N.Y.), B27 supplement (Gibco/Life Technologies, Grand Island, N.Y.), and 20 ng/ml each basic fibroblast growth factor (bFGF) and epidermal growth factor (EGF), or differentiation medium (DM) containing DMEM, 10% FBS. Medium, with fresh drug, was replenished every 48 hours. Growth dynamics were assessed using trypan blue exclusion and manual counting 1, 3, and 5 days after plating.

[4] = system: OG33 oligodendroglioma stem cells; assay: as above; settings: 100 μM NAA or 10 μM NAAG; SCM and DM; later time points up to 5 days
Procedure: as §2

ASPA in OG35 cells = assay: Immunocytochemistry of ASPA localization after NAA or NAAG; settings: 100 μM NAA or 10 μM NAAG; 5 days in DM; OG35 (primarily nuclear)
Procedure: (§3) Immunocytochemistry was performed as described (Perez-Martinez & Jaworski (2005) J Neurosci 25:4917-29). Briefly, OG33 and OG35 cells were plated into differentiaion medium (DMEM, 10% FBS), fixed with 2% paraformaldehyde, and ASPA expression localized immunocytochemically using rabbit anti-mouse ASPA (1,500×) (Madhavarao et al., 2004 Comp Neurol 472:318-29) and Cy-3 conjugated secondary antibody (500×; Jackson ImmunoResearch, West Grove, Pa.).

ASPA in OG33 cells [5] = assay: as above; settings: 100 μM NAA or 10 μM NAAG; 5 days in DM; OG33 (cytosolic)
Procedure: as §3

[6] = system: OG35 oligodendroglioma stem cells; assay: Cell cycle profile by propidium iodide staining and flow cytometry; settings: 100 μM NAA or 10 μM NAAG
Procedure: as §1

SMILES: CC(=O)N[C@@H](CC(=O)O)C(=O)O [NAA, N-acetylaspartate]
- OG33 cell number by flow cytometric cell cycle analysis [1]: no significant change
- Expression of novel 26 kDa ASPA species (ASPA in OG33 cells [2]): induced
- OG35 cell growth (cell number, manual counting) [3]: increased in SCM and DM
- OG33 cell growth (cell number, manual counting) [4]: only increased in SCM
- ASPA spatial localization (ASPA in OG35 cells): little effect
- ASPA spatial localization (ASPA in OG33 cells [5]): little effect

SMILES: CC(=O)N[C@@H](CC(=O)O)C(=O)N[C@@H](CCC(=O)O)C(=O)O [NAAG, N-acetylaspartylglutamate] (Ac-Asp-Glu-OH)
- OG35 growth by flow cytometric cell cycle analysis (cells in G2/M and G0/G1) [6]: promoted OG35 growth
- OG33 cell number by flow cytometric cell cycle analysis [1]: no significant change
- Expression of novel 26 kDa ASPA species (ASPA in OG33 cells [2]): induced
- OG35 cell growth (cell number, manual counting) [3]: increased in SCM and DM
- OG33 cell growth (cell number, manual counting) [4]: only increased in SCM
- ASPA spatial localization (ASPA in OG35 cells): little effect
- ASPA spatial localization (ASPA in OG33 cells [5]): little effect
